From the supplement of paper PMC13380429
± gives the standard deviation of the averaged measurements.

What was measured:
Conditions in all cases: 72 h
Vero E6 [1] = experiment: drug sensitivity score (DSS) for viability; higher = more toxic; extreme values may be limits of the assay
Caco-2 [2] = experiment: as above
HepG2 [3] = experiment: as above
Calu-3 [4] = experiment: as above
U2OS [5] = experiment: as above
Vero E6 [6] = experiment: cell viability relative to DMSO; higher = less toxic
Caco-2 [7] = experiment: as above
HepG2 [8] = experiment: as above
Calu-3 [9] = experiment: as above
U2OS [10] = experiment: as above
Vero E6 [11] = experiment: relative viability EC50 (midpoint between 100% and the lowest measured viability); higher = less toxic
Caco-2 [12] = experiment: as above
HepG2 [13] = experiment: as above
Calu-3 [14] = experiment: as above
U2OS [15] = experiment: as above

SMILES	drug sensitivity score (Vero E6 [1])	drug sensitivity score (Caco-2 [2])	drug sensitivity score (HepG2 [3])	drug sensitivity score (Calu-3 [4])	drug sensitivity score (U2OS [5])	cell viability (Vero E6 [6]; 1 nM)	cell viability (Vero E6 [6]; 10 nM)	cell viability (Vero E6 [6]; 100 nM)	cell viability (Vero E6 [6]; 1000 nM)	cell viability (Vero E6 [6]; 10000 nM)	cell viability (Caco-2 [7]; 1 nM)	cell viability (Caco-2 [7]; 10 nM)	cell viability (Caco-2 [7]; 100 nM)	cell viability (Caco-2 [7]; 1000 nM)	cell viability (Caco-2 [7]; 10000 nM)	cell viability (HepG2 [8]; 1 nM)	cell viability (HepG2 [8]; 10 nM)	cell viability (HepG2 [8]; 100 nM)	cell viability (HepG2 [8]; 1000 nM)	cell viability (HepG2 [8]; 10000 nM)	cell viability (Calu-3 [9]; 1 nM)	cell viability (Calu-3 [9]; 10 nM)	cell viability (Calu-3 [9]; 100 nM)	cell viability (Calu-3 [9]; 1000 nM)	cell viability (Calu-3 [9]; 10000 nM)	cell viability (U2OS [10]; 1 nM)	cell viability (U2OS [10]; 10 nM)	cell viability (U2OS [10]; 100 nM)	cell viability (U2OS [10]; 1000 nM)	cell viability (U2OS [10]; 10000 nM)	relative viability EC50 (Vero E6 [11])	relative viability EC50 (Caco-2 [12])	relative viability EC50 (HepG2 [13])	relative viability EC50 (Calu-3 [14])	relative viability EC50 (U2OS [15])
CC(=O)[C@@]1(O)CC[C@H]2[C@@H]3C[C@H](C)C4=CC(=O)CC[C@]4(C)[C@H]3CC[C@@]21C [medroxyprogesterone]	0	0	0.2	0	0	105%	99.5%	98.1%	99%	89%	96.8%	96.7%	92.4%	91.7%	89.1%	94.7%	98.5%	103%	106%	84.1%	86.5%	104%	95.6%	104%	103%	105%	97.3%	97.5%	94.4%	94.8%	> 10 µM	> 10 µM	> 10 µM	> 10 µM	> 10 µM
CC(C)Cc1ccc(C(C)C(=O)O)cc1 (stereo not given) [ibuprofen]	0	0	0	0	0	96.9 ± 0.57%	96.9 ± 2.5%	94.95 ± 0.071%	92.2 ± 2.9%	104.25 ± 0.071%	97.4 ± 5.4%	98.1 ± 3.7%	95.9 ± 2%	103 ± 4.1%	104 ± 3.2%	110 ± 5.8%	96.3 ± 1.8%	104 ± 8.1%	102 ± 5.4%	108 ± 9.9%	105 ± 5.7%	98.9 ± 6.4%	93 ± 1.3%	94.6 ± 8.3%	102 ± 7.8%	99.7 ± 3.4%	103 ± 4.4%	100.6 ± 0.96%	102 ± 2.5%	105 ± 2.5%	> 10 µM	> 10 µM	> 10 µM	> 10 µM	> 10 µM
NC(=O)NC(=O)Cc1ccccc1 [phenacemide]	0	0	0	0	0	97.5%	101%	96.8%	99.7%	96.9%	102%	94.4%	95.6%	100%	94.8%	96.4%	103%	95.5%	107%	102%	102%	97.2%	101%	87.7%	104%	104%	102%	102%	98.8%	97.6%	> 10 µM	> 10 µM	> 10 µM	> 10 µM	> 10 µM
CCCCCCCCCCCCC/C=C/[C@@H](O)[C@@H](N)CO[P@](=O)(O)OCC[N+](C)(C)C [sphingosylphosphorylcholine]	0	0	0	0	0	99.4%	103%	94.1%	105%	109%	91%	90.4%	102%	101%	102%	86%	98.8%	88.5%	102%	104%	94.2%	106%	87.7%	97.5%	107%	94%	97%	101%	95.7%	100%	> 10 µM	> 10 µM	> 10 µM	> 10 µM	> 10 µM
O=C(c1cc(S(=O)(=O)Nc2ccccc2F)c(F)cc1Cl)N1CCN2CCC[C@@H]2C1 [ABT-639]	0	0	0	0	0	102%	98.9%	97.8%	100%	100%	95.2%	97.8%	98.9%	94.9%	104%	94.4%	106%	87.2%	105%	92.5%	103%	104%	99.8%	106%	96.1%	99.1%	97.4%	99%	95.1%	99.5%	> 10 µM	> 10 µM	> 10 µM	> 10 µM	> 10 µM
O=c1[nH]c2ccccc2n1CCCN1CCC(n2c(=O)[nH]c3cc(Cl)ccc32)CC1 [domperidone]	0	0	0	0	0	90%	93.8%	95.8%	96.6%	89%	100%	96.1%	96.7%	92.1%	94.3%	94.6%	96.4%	92.3%	104%	95.7%	102%	94.6%	105%	106%	101%	103%	90.7%	97.6%	95.6%	94.2%	> 10 µM	> 10 µM	> 10 µM	> 10 µM	> 10 µM
CC[C@H](/C=C/[C@@H](C)[C@H]1CC[C@H]2[C@@H]3CC=C4C[C@@H](O)CC[C@]4(C)[C@H]3CC[C@]12C)C(C)C [Stigmasterol (Stigmasterin)]	0	0	0	0	0	99%	104%	99.4%	106%	102%	102%	107%	94.6%	93.5%	96.9%	103%	109%	92.9%	92.8%	105%	95%	103%	110%	102%	104%	105%	96.4%	100%	99.3%	99.4%	> 10 µM	> 10 µM	> 10 µM	> 10 µM	> 10 µM
CC(C)c1onc(-c2c(Cl)cccc2Cl)c1COc1ccc(/C=C/c2cccc(C(=O)O)c2)c(Cl)c1 [GW-4064]	0	1.4	0	0	0	95.5%	99.8%	94%	93.8%	95.7%	94%	99.4%	102%	91%	81.4%	105%	103%	92.4%	99.2%	93.8%	93.9%	107%	103%	102%	96.5%	98.2%	106%	96.4%	93.3%	97.7%	> 10 µM	> 10 µM	> 10 µM	> 10 µM	> 10 µM
CC(C)(C)[C@]1(O)CC2OC(=O)CC23C(=O)OC2OC(=O)[C@H](O)C231 (stereo not given in full) [bilobalide]	0	0	0	0	0	104%	104%	105%	96.6%	103%	98%	97.6%	97.2%	107%	89.7%	95.1%	97.1%	104%	117%	108%	101%	98.9%	109%	108%	116%	94.7%	104%	94%	98.5%	97.7%	> 10 µM	> 10 µM	> 10 µM	> 10 µM	> 10 µM
COc1cc2nccc(Oc3ccc(NC(=O)Nc4ccc(F)cc4F)c(F)c3)c2cc1OC [KI-8751]	0	0	0	0	0	101%	107%	98.9%	107%	107%	95.8%	91.8%	102%	92.4%	99.6%	97.5%	116%	106%	101%	95.5%	94.1%	97.6%	86.8%	95.7%	93.1%	98.8%	97.6%	99.2%	99.2%	102%	> 10 µM	> 10 µM	> 10 µM	> 10 µM	> 10 µM
CC(C)C(=O)Nc1ncc(-c2cc(C(F)F)nn2-c2c(Cl)cccc2Cl)s1 [LIMKi-3]	0	0	0	0	0	106%	101%	101%	92.2%	96%	91.4%	105%	92.8%	94.6%	97.3%	110%	98%	104%	106%	110%	88.4%	92.7%	98.5%	118%	115%	98.1%	106%	96.3%	100%	88.9%	> 10 µM	> 10 µM	> 10 µM	> 10 µM	> 10 µM
O=C(O)CSc1nnc(Br)n1-c1ccc(C2CC2)c2ccccc12 [lesinurad]	0	0	0	0	0	99.4%	100%	99.9%	102%	99.5%	98.4%	90.9%	91.4%	94%	99.7%	98.8%	102%	99.4%	84.8%	99.7%	99%	101%	106%	95.5%	102%	99.6%	103%	95.2%	95.9%	96.3%	> 10 µM	> 10 µM	> 10 µM	> 10 µM	> 10 µM
Cc1oc(-c2ccccc2)nc1CCOc1ccc(CC2SC(=O)NC2=O)c2sccc12 (stereo not given) [edaglitazone]	2.6	0.1	0	0	0	103%	102%	89.4%	83.7%	86.7%	104%	98.6%	90.4%	96.1%	87.2%	102%	107%	93.6%	100%	88.8%	106%	102%	114%	97.5%	102%	99.4%	93%	99.2%	97.4%	96.9%	> 10 µM	> 10 µM	> 10 µM	> 10 µM	> 10 µM
Oc1cc2c(c(Cl)c1O)CCNCC2c1ccccc1 (stereo not given)	0	0	0.1	0	0	104%	106%	103%	104%	98.6%	99.2%	94.9%	85.4%	90.9%	95.5%	93.2%	100%	100%	103%	86.8%	95.1%	106%	97.7%	106%	91.1%	100%	97%	102%	97.8%	104%	> 10 µM	> 10 µM	> 10 µM	> 10 µM	> 10 µM
